Results as given in ChEMBL document CHEMBL1150595, “Isolation and structure elucidation of radical scavengers from Thymus vulgaris leaves” (J Nat Prod, 2002).
The source made the active and inactive calls. The calls are words filed in the database; no cut-off is given here.

Columns and labels:
[1] = test system: Radical scavenging activity; assay: Antioxidant activity assessed as DPPH radical scavenging activity at drug-DPPH molar ratio of 1:2 after 15 mins; assay type: functional
[2] = test system: Radical scavenging activity; assay: Antioxidant activity assessed as DPPH radical scavenging activity after 1 min; assay type: functional
[3] = ABTS radical scavenging activity assessed as Trolox equivalent antioxidant capacity after 1 min; assay type: physicochemical
[4] = ABTS radical scavenging activity assessed as Trolox equivalent antioxidant capacity after 6 mins; assay type: physicochemical; conditions: 0.1 h
[5] = test system: Radical scavenging activity; assay: Antioxidant activity assessed as DPPH radical scavenging activity after 3 mins; assay type: functional

| Ratio [3] | Ratio [4] | SMILES | inhibition [1] [%] | inhibition [2] [%] | Activity [5] |
| --- | --- | --- | --- | --- | --- |
| 1.5 | 1.54 | O=C(/C=C/c1ccc(O)c(O)c1)O[C@H](Cc1ccc(O)c(O)c1)C(=O)O [ROSMARINIC ACID] | 95 | 43 | – |
| 0.58 | 0.69 | O=C(/C=C/c1ccc(O)c(O/C(=C\c2ccc(O)c(O)c2)C(=O)O)c1)O[C@H](Cc1ccc(O)c(O)c1)C(=O)O | 96 | 70 | Active |
